Patent US20260077051A1, “COMPOUNDS FOR THE DEGRADATION OF EGFR KINASE” (BeOne Medicines I GmbH, priority 2023, published 2026)

Biological target: T1, EGFR L858R (BaF3-L858R cells) (Homo sapiens, UniProt P00533, L858R)
T1 construct: host or cells: BaF3
Assay: EGFR degradation in BaF3-L858R cells (HTRF assay)
Assay type: cell-based
Conditions: 16 h treatment; for DC50: IC50(DC50) of EGFR degradation; for Dmax: maximum percentage of inhibition (degradation)
Method: BaF3-L858R (abbv. L858R) cell were purchased from Kangyuan Bochuang Biotechnology (Beijing) Co., Ltd.
H1975-#8 and BaF3-L858R cells are treated with compounds diluted in 0.1% DMSO cell culture medium on day 2, incubate for 16 h, 37° C., 5% CO2. the final concentration of compounds in all assay is start with 10 uM, 5-fold dilution, total 8 doses were included.
After 16 h treatment, for H1975-#8 cells, add 100 ul HTRF 1× lysis buffer to each well; for BaF3-L858R cells, add 20 μl 4× lysis buffer to each well; seal the plate and incubate 1 hour at room temperature on a plate shaker; Once the cells are lysed, 16 μL of cell lysate are transferred to a PE 384-well HTRF detection plate; 4 μL of pre-mixed HTRF antibodies are added to each well; Cover the plate with a plate sealer, spin 1000 rpm for 1 min, Incubate overnight at room temperature; Read on BMG PheraStar with HTRF protocol (337 nm-665 nm-620 nm).
The inhibition (degradation) percentage of the compound was calculated by the following equation:
High control=Cell group with added DMSO and without compound, indicating microplate readings without EGFR degradation;
Dmax is the maximum percentage of inhibition (degradation).
The IC50(DC50) value of a compound can be obtained by fitting the following equation
Wherein, X and Y are known values, and IC50, Hillslope, Top and Bottom are the parameters obtained by fitting with software. Y is the inhibition percentage (calculated from the equation), X is the concentration of the compound; IC50 is the concentration of the compound when the 50% inhibition is reached. The smaller the IC50 value is, the stronger the inhibitory ability of the compound is. Vice versa, the higher the IC50 value is, the weaker the ability the inhibitory ability of the compound is; Hillslope represents the slope of the fitted curve, generally around 1*; Bottom represents the minimum value of the curve obtained by data fitting, which is generally 0%±20%; Top represents the maximum value of the curve obtained by data fitting, which is generally 100%±20%. The experimental data were fitted by calculating and analyzing with Dotmatics data analysis software.

T1 sequence (P00533 25-1210 L858R): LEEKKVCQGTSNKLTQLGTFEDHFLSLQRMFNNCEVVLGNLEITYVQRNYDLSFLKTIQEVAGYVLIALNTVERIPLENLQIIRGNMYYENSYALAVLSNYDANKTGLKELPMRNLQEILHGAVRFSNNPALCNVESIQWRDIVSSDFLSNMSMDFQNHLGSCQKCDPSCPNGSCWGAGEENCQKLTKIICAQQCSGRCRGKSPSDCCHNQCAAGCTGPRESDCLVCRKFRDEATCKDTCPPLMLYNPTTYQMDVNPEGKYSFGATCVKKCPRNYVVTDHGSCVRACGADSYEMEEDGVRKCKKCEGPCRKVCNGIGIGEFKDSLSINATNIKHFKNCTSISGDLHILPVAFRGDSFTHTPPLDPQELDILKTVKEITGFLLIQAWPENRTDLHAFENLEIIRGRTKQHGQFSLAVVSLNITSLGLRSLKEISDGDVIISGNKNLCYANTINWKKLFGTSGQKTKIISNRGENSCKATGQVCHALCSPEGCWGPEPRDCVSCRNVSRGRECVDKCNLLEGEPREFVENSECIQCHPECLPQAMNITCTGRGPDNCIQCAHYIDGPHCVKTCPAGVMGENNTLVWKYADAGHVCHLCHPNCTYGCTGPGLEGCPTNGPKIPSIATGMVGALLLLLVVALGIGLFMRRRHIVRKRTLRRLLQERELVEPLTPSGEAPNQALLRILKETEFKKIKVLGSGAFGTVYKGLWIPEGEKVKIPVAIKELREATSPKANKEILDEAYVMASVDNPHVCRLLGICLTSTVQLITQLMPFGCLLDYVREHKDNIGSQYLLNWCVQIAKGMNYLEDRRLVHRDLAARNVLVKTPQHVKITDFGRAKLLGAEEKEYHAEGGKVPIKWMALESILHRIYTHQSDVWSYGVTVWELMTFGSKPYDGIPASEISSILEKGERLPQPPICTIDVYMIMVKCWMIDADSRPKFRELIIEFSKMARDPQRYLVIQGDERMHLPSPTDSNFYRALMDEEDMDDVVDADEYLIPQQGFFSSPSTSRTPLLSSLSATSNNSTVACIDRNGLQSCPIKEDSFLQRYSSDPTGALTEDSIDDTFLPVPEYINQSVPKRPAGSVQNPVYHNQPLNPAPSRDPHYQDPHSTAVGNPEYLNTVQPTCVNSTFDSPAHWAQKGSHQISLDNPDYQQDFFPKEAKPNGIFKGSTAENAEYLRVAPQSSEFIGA

SMILES	DC50	Dmax
Cc1cc2cc(n1)-c1cnn(C)c1OCC[C@H]1C[C@@H]1CN1/C(=N/C2=O)Nc2ccc(NC3CN(C4CCN(c5cnc(C6CCC(=O)NC6=O)cc5C)CC4)C3)cc21 (stereo partly drawn) [Example 1, 3-(5-(4-(3-(((7^1S,7^2R,E)-1^1,2^6-dimethyl-3-oxo-5^2,5^3-dihydro-1^1H,5^1H-10-oxa-4-aza-5 (2,1)-benzo[d]imidazola-2 (2,4)-pyridina-1 (4,5)-pyrazola-7 (1,2)-cyclopropanacyclodecaphane-5^6-yl)amino)azetidin-1-yl)piperidin-1-yl)-4-methylpyridin-2-yl)piperidine-2,6-dione]	15.7 nM	68.4%
Cc1cc2cc(n1)-c1cnn(C)c1OCC[C@H]1C[C@@H]1CN1/C(=N/C2=O)Nc2ccc(N3CCC(N4CC5CCC(C4)N5c4ccc(C5CCC(=O)NC5=O)nc4C)CC3)cc21 (stereo partly drawn) [Example 4, 3-(5-(3-(1-((7^1S,7^2R,E)-1^1,2^6-dimethyl-3-oxo-5^2,5^3-dihydro-1^1H,5^1H-10-oxa-4-aza-5 (2,1)-benzo[d]imidazola-2 (2,4)-pyridina-1 (4,5)-pyrazola-7 (1,2)-cyclopropanacyclodecaphane-5^6-yl)piperidin-4-yl)-3,8-diazabicyclo[3.2.1]octan-8-yl)-6-methylpyridin-2-yl)piperidine-2,6-dione]	52.5 nM	63.6%
Cc1cc2cc(n1)-c1cnn(C)c1OCC[C@H]1C[C@@H]1CN1/C(=N/C2=O)Nc2ccc(N3CCN(CC4CN(c5ccc6c(c5)C(C)(C)C(=O)N6C5CCC(=O)NC5=O)C4)CC3)cc21 (stereo partly drawn) [Example 13, 3-(5-(3-((4-((7^1S,7^2R,E)-1^1,2^6-dimethyl-3-oxo-5^2,5^3-dihydro-1^1H,5^1H-10-oxa-4-aza-5 (2,1)-benzo[d]imidazola-2 (2,4)-pyridina-1 (4,5)-pyrazola-7 (1,2)-cyclopropanacyclodecaphane-5^6-yl)piperazin-1-yl)methyl)azetidin-1-yl)-3,3-dimethyl-2-oxoindolin-1-yl)piperidine-2,6-dione]	8.09 nM	82.2%

More lines, now with the values ahead:

DC50	Dmax	SMILES
72.2 nM	70.3%	Cc1cc2cc(n1)-c1cnn(C)c1OCC[C@H]1C[C@@H]1CN1/C(=N/C2=O)Nc2ccc(N3CCC(N4CC5CCC4CN5c4ccc(C5CCC(=O)NC5=O)nc4C)CC3)cc21 (stereo partly drawn) [Example 5, 3-(5-(5-(1-((7^1S,7^2R,E)-1^1,2^6-dimethyl-3-oxo-5^2,5^3-dihydro-1^1H,5^1H-10-oxa-4-aza-5 (2,1)-benzo[d]imidazola-2 (2,4)-pyridina-1 (4,5)-pyrazola-7 (1,2)-cyclopropanacyclodecaphane-5^6-yl)piperidin-4-yl)-2,5-diazabicyclo[2.2.2]octan-2-yl)-6-methylpyridin-2-yl)piperidine-2,6-dione]
17.1 nM	82.2%	Cc1cc2cc(n1)-c1cnn(C)c1OCC[C@H]1C[C@@H]1CN1/C(=N/C2=O)Nc2ccc(N3CC4CCC3CN4C3CCN(c4ccc(C5CCC(=O)NC5=O)nc4C)CC3)cc21 (stereo partly drawn) [Example 6, 3-(5-(4-(5-((7^1S,7^2R,E)-1^1,2^6-dimethyl-3-oxo-5^2,5^3-dihydro-1^1H,5^1H-10-oxa-4-aza-5 (2,1)-benzo[d]imidazola-2 (2,4)-pyridina-1 (4,5)-pyrazola-7 (1,2)-cyclopropanacyclodecaphane-5^6-yl)-2,5-diazabicyclo[2.2.2]octan-2-yl)piperidin-1-yl)-6-methylpyridin-2-yl)piperidine-2,6-dione]
85.4 nM	74.9%	Cc1cc2cc(n1)-c1cnn(C)c1OCC[C@H]1C[C@@H]1CN1/C(=N/C2=O)Nc2ccc(N3CCN(C[C@@H]4CCN(c5ccc(C6CCC(=O)NC6=O)nc5C)C4)CC3)cc21 (stereo partly drawn) [Example 9, 3-(5-((S)-3-((4-((7^1S,7^2R,E)-1^1,2^6-dimethyl-3-oxo-5^2,5^3-dihydro-1^1H,5^1H-10-oxa-4-aza-5 (2,1)-benzo[d]imidazola-2 (2,4)-pyridina-1 (4,5)-pyrazola-7 (1,2)-cyclopropanacyclodecaphane-5^6-yl)piperazin-1-yl)methyl)pyrrolidin-1-yl)-6-methylpyridin-2-yl)piperidine-2,6-dione]
